Experimental data reported in patent publication US12102432B2, “Uses of transdermal glomerular filtration rate measurement in continuous renal replacement therapy” (MediBeacon Inc., priority 2018, dated 2024).
Where “and” joins values, the source holds several entries; their conditions need not be identical. Equal values may be shown once.

Tests used:
[1] = Meropenem infusion in porcine model before CRRT, blood concentration; type: in vivo, Swine; conditions: infused for 30 minutes
Protocol: Swine (3 male and 3 female, for both CVVH and CVVHD modalities) weighing 35-40 kg were used. In this model, a total functional nephrectomy was achieved by ligation of all renal arteries. Animals were inspected by professional veterinary staff within 48 hours of arrival. Any underlying infections or parasitism was treated based on veterinary recommendations. After taking a pre-MB-102 blood sample (baseline), a dose of 6 mg/kg of MB-102 was injected as a single bolus, followed by a 90 minute period of equilibration, to allow for MB-102 systemic redistribution (see FIGS. 7 and 13 for equilibration of fluorescent signal detected by the renal monitoring assembly). Thirty minutes after the MB-102 injection, Meropenum was infused for 30 minutes, which reached a peak concentration in blood ˜1 hr after the start of the infusion. […] Samples collected during these periods, along with the baseline (BSL) sample taken before the MB-102 dose, were assayed, and measured values were used in calculations to compare clearance rates with real-time MB-102 clearance measurements. […] A similar sample collection time-course was initiated at the high flow rate for both the low and high effluent flow rate data sets (seven sample time points at three circuit sites), allowing for similar comparisons of real-time and calculated clearance rates.

[2] = Adsorption of MB-102 to CRRT apparatus, in vitro CVVH model; type: in vitro ADME, bovine; conditions: for mean percent change at the end of experiment: average of 6 experiments, 60 min; for percent change at the end of each experiment: single experiments 1-6, initial to 60 min, blood flow 200 mL/min, Quf 33 mL/min
Protocol: As an initial step, it was determined if the compound MB-102 adsorbs onto the hemodiafilter, tubing or other parts of the CRRT instrument. This study used a continuous venovenous hemofiltration (CVVH) configuration to assess MB-102 adsorptive clearance with a previously validated in vitro CVVH model using 1 L of pH regulated, citrate-anti-coagulated bovine blood. Using a Braun DIAPACT™ CRRT system, two different hemodiafilters were tested: the HF1400 and the M150 hemodiafilters. New bovine blood, hemodiafilters, and CRRT tubing sets were used in each experiment. The blood was continuously stirred and maintained at 37° C. in a water bath during all experiments. Reconstituted MB-102 was added to the blood to achieve a final concentration of ˜6.2 mg/L. Urea was used as a control and added to the blood to produce a blood urea nitrogen (BUN) concentration of ˜75 mg/dL. Blood flow rates of 200 mL/min with an ultrafiltration rate (Quf) of 33 mL/min were tested. This maximized MB-102 contact with the membranes, both on the blood side and via convection through the hemodiafilter membrane. A closed system was developed to maintain a constant volume in the extracorporeal system. The effluent was used as the replacement fluid which was returned to the blood as a post-filter replacement fluid to maintain a constant blood volume. The CRRT instrument was primed with normal saline before operation, consequently the urea and MB-102 dilution caused by the residual priming solution was accounted for. Blood samples were collected from the pre-filter port at 0 (baseline), 5 (at which time mixing was complete), 10, 20, 30, and 60 minutes. Each experiment was repeated six times with new hemodiafilters and tubing sets.
Equations used to calculate the dilution factor and adsorption are as follows:
[formula] wherein C0 is the concentration of MB-102 in the pre-filter at time=0 minutes; and C60 is the concentration of MB-102 in the pre-filter at time=60 minutes.
[formula] where [Urea0] is the urea concentration in the pre-filter at time=0 minutes; and [Urea60] is the urea concentration in the pre-filter at time=60 minutes.
All blood samples were collected and centrifuged at 3000 rpm for 10 minutes. The plasma and effluent samples were transferred to cryovials in duplicate and stored at −80° C. until analysis. BUN concentrations were analyzed with Advia 1800 (Siemens Healthcare Diagnostic Inc., Tarrytown, N.Y., USA) having a lower limit of quantification of 5 mg/dL. […]

[3] = In vitro continuous hemofiltration (CVVH) model, sieving coefficient; type: in vitro ADME, bovine; conditions: CVVH
Protocol: The procedure for the CVVH study was conducted using the model CVVH system illustrated in FIG. 5. The CLTM of urea and MB-102 were evaluated with different blood flow rates, ultrafiltration rate (Quf) and hemodiafilters (Table 1). In a closed-loop system, the formed effluent was returned to the blood as a post-filter replacement fluid downstream from the post-hemodiafilter blood sampling port. Pre- and post-hemodiafilter blood samples, and effluent samples were collected concurrently. Six experiments were conducted for each hemodiafilter, and new hemodiafilters and CRRT apparatus were used for each experiment. Sieving coefficient (SC) and CLTM were calculated as follows:
[formula] where Sc is the sieving coefficient; Cuf is the concentration in the effluent; Ca is the concentration of the solute in the pre-filter; and Cv is the concentration of the solute in the post-filter. CLconv=SC×QUF Equation (4) wherein CLconv is the convective clearance for the post-filter replacement; QUF is the ultrafiltration rate.
(§1) All blood samples were collected and centrifuged at 3000 rpm for 10 minutes. The plasma and effluent samples were transferred to cryovials in duplicate and stored at −80° C. until analysis. BUN concentrations were analyzed with Advia 1800 (Siemens Healthcare Diagnostic Inc., Tarrytown, N.Y., USA) having a lower limit of quantification of 5 mg/dL.
(§2) Similarly, six CVVH and CVVHD experiments with each hemodiafilter were used to detect a 25% difference in MB-102 CLTM between hemodiafilters. Assumptions used in these calculations included: a power of 90% and a standard deviation of 10% with a significance level of p<0.05. A two-tailed, unpaired t-test was used to compare differences between the two hemodiafilters, and the analysis of variance was used to compare different QUF and Qd within each hemodiafilter type.

[4] = In vitro continuous hemodialysis (CVVHD) model, saturation coefficient; type: in vitro ADME, bovine; conditions: for Saturation coefficient (mean ± SD): CVVHD, blood flow 200 mL/min
Protocol: For CVVHD experiments, the CLTM was assessed using a previously validated in vitro CVVHD model as illustrated in FIG. 6. Commonly used effluent flow rates of 16, 33, 50, and 100 mL/min, and a blood flow rate of 200 mL/min were used. Effluent was prepared according to directions from the manufacturer by mixing sodium bicarbonate powder (NATURALYTE® 4000, Fresenius Medical Care, Waltham, Mass., USA) with distilled water in a 45:1 ratio. After adding MB-102 and urea to the blood, it was recirculated through the circuit for 5 min for uniform coating of the extracorporeal circuit. A single-pass mode of the CVVHD procedure with four different flow rates was run in random order for each hemodiafilter. Blood samples were collected from the pre- and post-filter ports, and spent effluent samples were taken from the effluent port 5 min after initiation of the CVVHD experiments at all four effluent flow rates. These experiments were conducted on 6 new hemodiafilters and CRRT tubing sets. Saturation coefficient (SA) and CLTM were calculated as follows:
[formula] CLdiff=(SA×Qd) Equation (6)
where SA is the saturation coefficient; CUF is the concentration in the effluent; Ca is the concentration of the solute in the pre-filter; CV is the concentration of the solute in the post-filter; CLdiff is the diffusion clearance for post-filter replacement; Qd is the effluent flow rate.
as §1, §2

## C[C@@H](O)[C@H]1C(=O)N2C(C(=O)O)=C(S[C@@H]3CN[C@H](C(=O)N(C)C)C3)[C@H](C)[C@H]12 [Meropenem, meropenem]
[1]
  time to peak concentration in blood after the start of the infusion: ~1 h

## NC(N)=O [Urea, reference compound]
[2]; HF1400 hemodiafilter
  mean percent change at the end of experiment: 19.5%
  percent change at the end of each experiment: 19.6% and 20.9% and 18.6% and 20.0% and 18.2%
[2]; M150 hemodiafilter
  mean percent change at the end of experiment: 19.3%
  percent change at the end of each experiment: 17.5% and 19.5% and 21.7% and 18.0% and 17.0% and 22.0%
[3]; HF1400, ultrafiltration rate 16.7 mL/min
  Mean sieving coefficient: 1.08 ± 0.03
[3]; HF1400, ultrafiltration rate 33.3 mL/min
  Mean sieving coefficient: 1.09 ± 0.05
[3]; HF1400, ultrafiltration rate 50 mL/min
  Mean sieving coefficient: 1.08 ± 0.07
[3]; M150, ultrafiltration rate 16.7 mL/min
  Mean sieving coefficient: 1.00 ± 0.05
[3]; M150, ultrafiltration rate 33.3 mL/min
  Mean sieving coefficient: 1.04 ± 0.10
[3]; M150, ultrafiltration rate 50 mL/min
  Mean sieving coefficient: 1.05 ± 0.04
[4]; HF1400, Qd 16.7 mL/min
  Saturation coefficient (mean ± SD): 1.04 ± 0.07
[4]; HF1400, Qd 33.3 mL/min
  Saturation coefficient (mean ± SD): 1.19 ± 0.09
[4]; HF1400, Qd 50 mL/min
  Saturation coefficient (mean ± SD): 1.17 ± 0.11
[4]; HF1400, Qd 100 mL/min
  Saturation coefficient (mean ± SD): 1.17 ± 0.19
[4]; M150, Qd 16.7 mL/min
  Saturation coefficient (mean ± SD): 1.08 ± 0.08
[4]; M150, Qd 33.3 mL/min
  Saturation coefficient (mean ± SD): 1.16 ± 0.04
[4]; M150, Qd 50 mL/min
  Saturation coefficient (mean ± SD): 1.15 ± 0.15
[4]; M150, Qd 100 mL/min
  Saturation coefficient (mean ± SD): 1.35 ± 0.20
[4]; low effluent flow rates (16-50 mL/min)
  mean SA values: approximately unity
